Experiments:
[1] = tested on: recombinant histidine-tagged Stx2B subunit (2BH); format: binding, Escherichia coli
[2] = tested on: binding of 125I-Stx2 to HeLa cells; format: cell-based
[3] = tested on: Stx2 cytotoxicity toward HeLa cells

Sequence: HNPMSFPTPRLY [HN-11]
- concentration dependence of binding to 2BH [1]: did not significantly change
- inhibitory effect on the uptake of Stx2 [2]: almost no inhibitory effect
- inhibitory effect on Stx2 cytotoxicity [3]: Almost no inhibitory effect

Source: article PMC4763182 (Scientific Reports, 2016)
